Test results reported in the supplement of paper PMC10307832.

Key:
Assay in all cases: relative viability (nuclei count vs DMSO), 5 days (fraction); higher = more cells survive
[1] = compound: C1=CC(=CC=C1NC(=S)NNC2=C(C=C(C=C2[N+](=O)[O-])C(F)(F)F)[N+](=O)[O-])F [Kobe2602] + Nc1ncn([C@H]2C[C@H](O)[C@@H](CO)O2)c(=O)n1 [Decitabine] (partner 2 µM)
Summary of the method: (§1)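 Lung cancer cell lines in 1536-well plates were dosed by pin tool the day after seeding, either with one drug alone or with a fixed anchor-drug dose plus five library-drug doses (not always all listed) in √10 steps. After 5 days, cells were fixed and their nuclei stained in one step (final 0.05% Triton X-100, 1% formaldehyde, 1 ug/ml Hoechst), then counted on 4× images. Relative viability is the nuclei count in treated wells divided by that in vehicle wells. Values are medians of duplicate plates.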

[2] = compound: COc1cc2nccc(Oc3ccc(NC(=O)C4(C(=O)Nc5ccc(F)cc5)CC4)cc3)c2cc1OC [Cabozantinib] + O=C(c1cc(Cc2n[nH]c(=O)c3ccccc23)ccc1F)N1CCN(C(=O)C2CC2)CC1 [Olaparib] (partner 8 µM)
Summary of the method: as §1

[3] = compound: O[C@@H](COc1cccc2ncccc12)CN1CCN([C@@H]2c3ccccc3[C@@H]3[C@H](c4ccccc42)C3(F)F)CC1 [Zosuquidar] + C[C@@H](Oc1cc(-c2cnn(C3CCNCC3)c2)cnc1N)c1c(Cl)ccc(F)c1Cl [Crizotinib] (partner 1 µM)
Summary of the method: as §1

[4] = compound: O[C@@H](COc1cccc2ncccc12)CN1CCN([C@@H]2c3ccccc3[C@@H]3[C@H](c4ccccc42)C3(F)F)CC1 [Zosuquidar] + C[C@]1(O)C[C@@H](c2nc(-c3ccc4ccc(-c5ccccc5)nc4c3)c3c(N)nccn32)C1 [Linsitinib] (partner 1 µM)
Summary of the method: as §1

Cell Line | relative viability ([1]; first compound 0.6325 µM) | relative viability ([1]; first compound 2 µM) | relative viability ([1]; first compound 6.325 µM) | relative viability ([1]; first compound 20 µM) | relative viability ([2]; first compound 0.02 µM) | relative viability ([2]; first compound 0.06325 µM) | relative viability ([2]; first compound 0.2 µM) | relative viability ([2]; first compound 0.6325 µM) | relative viability ([2]; first compound 2 µM) | relative viability ([3]; first compound 0.01 µM) | relative viability ([3]; first compound 0.03162 µM) | relative viability ([3]; first compound 0.1 µM) | relative viability ([3]; first compound 0.3162 µM) | relative viability ([3]; first compound 1 µM) | relative viability ([4]; first compound 0.01 µM) | relative viability ([4]; first compound 0.03162 µM) | relative viability ([4]; first compound 0.1 µM) | relative viability ([4]; first compound 0.3162 µM) | relative viability ([4]; first compound 1 µM) | relative viability ([1]; first compound 0.2 µM)
NCI-H460 | 0.486 | 0.525 | 0.472 | 0.454 | 0.443 | 0.492 | 0.445 | 0.46 | 0.422 | 0.813 | 0.906 | 1.01 | 0.916 | 1.02 | 0.764 | 0.802 | 0.711 | 0.759 | 0.768 | 
NCI-H520 | 0.616 | 0.563 | 0.526 | 0.48 | 0.369 | 0.341 | 0.386 | 0.42 | 0.228 | 0.727 | 0.68 | 0.737 | 0.834 | 0.828 | 0.984 | 0.945 | 0.888 | 0.946 | 1.08 | 0.543
NCI-H596 | 1.03 | 1.07 | 1.12 | 1.23 | 0.75 | 0.768 | 0.756 | 0.7 | 0.793 | 1.03 | 0.898 | 1.01 | 1.06 | 1.02 | 1.03 | 1.09 | 1.03 | 1.05 | 1.03 | 1.03
NCI-H647 | 0.399 | 0.332 | 0.4 | 0.399 | 0.715 | 0.656 | 0.523 | 0.537 | 0.51 | 1.03 | 1.09 | 1.03 | 1.14 | 1.1 | 1.16 | 1.19 | 1.3 | 1.28 | 1.24 | 0.438
NCI-H650 | 0.304 | 0.32 | 0.289 | 0.376 | 0.38 | 0.373 | 0.398 | 0.386 | 0.35 | 0.641 | 0.762 |  | 0.731 | 0.721 | 0.886 | 0.629 |  | 0.965 | 0.921 | 0.313
NCI-H661 | 0.598 | 0.589 | 0.561 | 0.612 | 0.786 | 0.79 | 0.779 | 0.875 | 0.825 | 0.993 | 1.07 |  | 1.05 | 0.906 | 0.614 | 0.653 | 0.447 | 0.704 | 0.69 | 0.564
NCI-H727 | 0.765 | 0.97 |  | 1.13 | 0.769 | 0.828 | 0.632 | 0.907 | 0.606 | 0.905 | 0.925 | 0.732 | 0.798 | 0.925 | 0.328 | 0.343 | 0.335 | 0.237 | 0.274 | 0.854
NCI-H838 | 0.478 | 0.46 | 0.472 | 0.527 | 0.847 | 0.836 | 0.774 | 0.699 | 0.662 | 0.802 | 0.789 | 0.849 | 0.901 | 0.779 | 1.01 | 0.981 | 1.02 | 1.09 | 1.06 | 0.474
